Test results: ChEMBL document CHEMBL4673259, “Discovery of isoquinolinone and naphthyridinone-based inhibitors of poly(ADP-ribose) polymerase-1 (PARP1) as anticancer agents: Structure activity relationship and preclinical characterization” (Bioorg Med Chem, 2020)
Calls of active or inactive are those of the source. The calls are words filed in the database; no cut-off is given here.

Experiments:
MDA-MB-436 [1] = test: Cytotoxicity against human MDA-MB-436 cells assessed as inhibition of cell viability incubated for 14 days with three intermittent intervals by CellTiterGlo luminescence assay; conditions: MDA-MB-436, 336 h
SK-ES1 [2] = test: Antitumor activity against human SK-ES-1 cells xenografted in SCID/nude mouse assessed as tumor growth inhibition at 0.45 mg/kg, po bid measured up to 5 weeks post drug administration; type: functional; conditions: 840 h, time weeks <=5
MDA-MB-436 [3] = test: Potentiation of anticancer activity against human MDA-MB-436 cells harboring BRCA mutant xenografted in SCID/nude mouse assessed as tumor growth inhibition at 0.15 mg/kg, po bid for 12 days co-administered with TMZ measured after drug administration cessation; type: functional, organism-based; conditions: time 12.0 day
[4] = target: Protein mono-ADP-ribosyltransferase PARP3 (Homo sapiens, UniProt Q9Y6F1); test: Inhibition of PARP3 (unknown origin)
SK-ES1 [5] = test: Potentiation of anticancer activity against human SK-ES-1 cells harboring EWSF1 translocation xenografted in SCID/nude mouse assessed as tumor growth inhibition at 0.15 mg/kg, po bid for 12 days co-administered with TMZ measured up to 9 weeks post drug administration; type: functional; conditions: 288 h, time 12 day
CYP2C19 = CYP2C19 (Homo sapiens, UniProt P33261); test: Inhibition of CYP2C19 (unknown origin) at 10 uM relative to control; type: ADME
CYP2C9 = CYP2C9 (Homo sapiens, UniProt P11712); test: Inhibition of CYP2C9 (unknown origin) at 10 uM relative to control; type: ADME
[6] = Toxicity in rat assessed as NOAEL for CNS effect; conditions: in vivo
[7] = Toxicity in rat assessed as NOAEL for respiratory effect; conditions: in vivo
HEK293 = test: Cytotoxicity against HEK293 cells at 1000 nM relative to control; type: cell-based; conditions: human, hek293, 1 µM
CAPAN-1 [8] = test: Antitumor activity against human CAPAN1 cells xenografted in SCID/nude mouse assessed as tumor growth inhibition at 0.3 mg/kg, po bid measured up to 5 weeks post drug administration; type: functional; conditions: CAPAN-1, po, 840 h, time weeks <=5
CYP2B6 = CYP2B6 (Homo sapiens, UniProt P20813); test: Inhibition of CYP2B6 (unknown origin) at 10 uM relative to control; type: ADME
[9] = Metabolic stability of the compound in mouse plasma measured up to 4 hrs; type: ADME, cell-free; conditions: read-out: Stabilty
[10] = target: Poly [ADP-ribose] polymerase 1 (Homo sapiens, UniProt P09874); test: Inhibition of PARP1 in human MDA-MB-436 cells assessed as inhibition of PARylation at 10 nM incubated for 1 hr by chemiluminescence assay; type: cell-based
[11] = Toxicity against SCID/nude mouse xenografted with human CAPAN-1 cells harboring BRCA mutant assessed as body weight loss at 0.15 mg/kg, po bid for 12 days co-administered with 35 mg/kg, po TMZ; type: organism-based; conditions: in vivo, 288 h, time 12 day
[12] = target: 5-hydroxytryptamine receptor 2B (Homo sapiens) (UniProt P41595); test: Displacement of [3H]mesulergine from human recombinant 5-HT2B receptor at 10 uM incubated for 60 mins by radiometric scintillation analysis
CAPAN-1 [13] = test: Potentiation of anticancer activity against human CAPAN-1 cells harboring BRCA mutant xenografted in SCID/nude mouse assessed as tumor growth inhibition at 0.15 mg/kg, po bid for 12 days co-administered with TMZ measured up to 9 weeks post-drug administration; type: functional; conditions: CAPAN-1, po, 288 h, time 12 day
[14] = Metabolic stability of the compound in human plasma measured up to 4 hrs; type: ADME, cell-free; conditions: read-out: Stabilty
MDA-MB-436 [15] = test: Anticancer activity against human MDA-MB-436 cells harboring BRCA mutant xenografted in SCID/nude mouse assessed as tumor growth regression at 0.015 mg/kg, po bid and measured up to 5 weeks post-drug administration; type: functional; conditions: MDA-MB-436, po, 840 h, time weeks <=5
[16] = Toxicity against SCID/nude mouse xenografted with human MDA-MB-436 cells harboring BRCA mutant assessed as body weight loss at 0.15 mg/kg, po bid for 12 days co-administered with 35 mg/kg, po TMZ; type: organism-based; conditions: in vivo, 288 h, time 12 day
MDA-MB-436 [17] = test: Anticancer activity against human MDA-MB-436 cells harboring BRCA mutant xenografted in SCID/nude mouse assessed as tumor growth regression at 0.15 mg/kg, po bid and measured up to 5 weeks post-drug administration; type: functional; conditions: MDA-MB-436, po, 840 h, time weeks <=5
[18] = Protein binding in rat plasma; type: ADME, cell-free; conditions: read-out: PPB (converted)
[19] = Toxicity in rat assessed as NOAEL; conditions: in vivo
[20] = Metabolic stability of the compound in dog plasma measured up to 4 hrs; type: ADME, cell-free, Canis lupus familiaris; conditions: read-out: Stabilty
[21] = target: Poly [ADP-ribose] polymerase tankyrase-2 (Homo sapiens, UniProt Q9H2K2); test: Inhibition of TNKS2 (unknown origin)
MDA-MB-436 [22] = test: Cytotoxicity against human MDA-MB-436 cells assessed as inhibition of cell viability incubated for 4 days by CellTiterGlo luminescence assay; conditions: MDA-MB-436, 96 h
CYP3A4 = CYP3A4 (Homo sapiens, UniProt P08684); test: Inhibition of CYP3A4 (unknown origin) at 10 uM relative to control; type: ADME
MDA-MB-436 [23] = test: Anticancer activity against human MDA-MB-436 cells harboring BRCA mutant xenografted in po dosed SCID/nude mouse assessed as tumor growth regression administered bid and measured up to 5 weeks post-drug administration; type: functional, organism-based; conditions: dose 0.015-0.15 mg/kg, time weeks <=5
[24] = Cmax in BALB/c mouse at 10 mg/kg, po measured up to 24 hrs by LC-MS/MS analysis; type: ADME, organism-based; parameters: route oral, dose 10 mg/kg, time <=24; conditions: in vivo
CAPAN-1 [25] = test: Antitumor activity against human CAPAN1 cells xenografted in SCID/nude mouse assessed as tumor growth inhibition at 0.1 mg/kg, po bid measured up to 5 weeks post drug administration; type: functional; conditions: CAPAN-1, po, 840 h, time weeks <=5
[26] = AUClast in BALB/c mouse at 10 mg/kg, po measured up to 24 hrs by LC-MS/MS analysis; type: ADME, organism-based; parameters: route oral, dose 10 mg/kg, time <=24; conditions: in vivo
[27] = target: Adrenergic receptor alpha-1 (Homo sapiens) (UniProt P35348+P25100+P35368); test: Binding affinity to alpha1 adrenoceptor (unknown origin) at 10 uM; type: protein assay
[28] = Toxicity against SCID/nude mouse xenografted with human SK-ES-1 cells harboring EWSF1 translocation assessed as body weight loss at 0.15 mg/kg, po bid for 12 days co-administered with 35 mg/kg, po TMZ; type: organism-based; conditions: in vivo, 288 h, time 12 day
[29] = target: Poly [ADP-ribose] polymerase 2 (Homo sapiens, UniProt Q9UGN5); test: Inhibition of N-terminal GST-tagged human PARP2 (2 to 583 residues) expressed in baculovirus infected Sf9 cells using histone mixture (H2A and H2B) and biotinylated NAD+ as substrate in presence of activated DNA incubated for 60 mins by chemiluminescence assay
MDA-MB-436 [30] = test: Potentiation of anticancer activity against human MDA-MB-436 cells harboring BRCA mutant xenografted in SCID/nude mouse assessed as tumor growth inhibition at 0.15 mg/kg, po bid for 12 days co-administered with […] measured up to 9 weeks post drug administration; type: functional; conditions: MDA-MB-436, po, time weeks <=9
[31] = Protein binding in human plasma; type: ADME, cell-free; conditions: read-out: PPB (converted)

5-hydroxytryptamine receptor 2B (Homo sapiens), sequence (P41595 whole entry): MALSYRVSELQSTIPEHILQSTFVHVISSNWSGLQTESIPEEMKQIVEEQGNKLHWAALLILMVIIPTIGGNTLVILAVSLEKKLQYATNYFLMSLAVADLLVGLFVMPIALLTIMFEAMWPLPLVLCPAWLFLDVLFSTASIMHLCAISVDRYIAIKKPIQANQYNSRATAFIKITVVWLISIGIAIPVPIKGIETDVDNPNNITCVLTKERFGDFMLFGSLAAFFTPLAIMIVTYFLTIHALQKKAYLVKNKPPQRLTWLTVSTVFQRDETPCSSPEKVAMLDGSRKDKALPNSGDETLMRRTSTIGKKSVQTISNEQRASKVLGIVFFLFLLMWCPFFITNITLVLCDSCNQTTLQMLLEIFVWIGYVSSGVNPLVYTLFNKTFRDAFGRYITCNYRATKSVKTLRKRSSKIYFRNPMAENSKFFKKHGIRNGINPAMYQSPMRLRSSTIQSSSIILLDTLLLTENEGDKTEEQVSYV
Protein mono-ADP-ribosyltransferase PARP3, sequence (Q9Y6F1 whole entry): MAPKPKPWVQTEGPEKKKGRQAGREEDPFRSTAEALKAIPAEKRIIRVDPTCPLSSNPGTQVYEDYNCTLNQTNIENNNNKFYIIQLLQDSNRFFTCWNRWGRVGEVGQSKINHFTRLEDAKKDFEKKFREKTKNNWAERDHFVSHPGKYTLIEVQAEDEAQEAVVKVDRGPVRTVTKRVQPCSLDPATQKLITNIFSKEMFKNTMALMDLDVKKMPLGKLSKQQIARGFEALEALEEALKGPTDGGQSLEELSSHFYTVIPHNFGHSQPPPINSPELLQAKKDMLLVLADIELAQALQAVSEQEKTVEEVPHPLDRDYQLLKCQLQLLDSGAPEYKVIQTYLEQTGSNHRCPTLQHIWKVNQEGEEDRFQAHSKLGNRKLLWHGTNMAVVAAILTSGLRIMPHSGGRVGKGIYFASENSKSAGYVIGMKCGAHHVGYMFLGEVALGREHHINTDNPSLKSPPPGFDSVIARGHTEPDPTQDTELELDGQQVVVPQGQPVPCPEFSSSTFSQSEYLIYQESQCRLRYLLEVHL
CYP2C9, sequence (P11712 whole entry): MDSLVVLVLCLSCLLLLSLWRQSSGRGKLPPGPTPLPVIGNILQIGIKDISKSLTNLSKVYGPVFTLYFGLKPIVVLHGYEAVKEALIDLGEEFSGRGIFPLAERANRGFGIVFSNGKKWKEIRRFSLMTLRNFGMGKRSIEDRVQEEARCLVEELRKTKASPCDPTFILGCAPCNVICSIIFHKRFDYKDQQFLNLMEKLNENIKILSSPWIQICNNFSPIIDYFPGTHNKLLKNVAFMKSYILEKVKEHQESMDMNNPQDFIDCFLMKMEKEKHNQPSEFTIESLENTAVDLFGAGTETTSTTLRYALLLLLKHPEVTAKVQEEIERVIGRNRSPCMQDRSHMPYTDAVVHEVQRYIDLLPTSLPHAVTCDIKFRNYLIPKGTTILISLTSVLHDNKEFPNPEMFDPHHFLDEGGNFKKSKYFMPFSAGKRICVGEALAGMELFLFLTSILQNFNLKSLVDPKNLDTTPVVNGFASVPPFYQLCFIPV
Poly [ADP-ribose] polymerase 1, sequence (P09874 whole entry): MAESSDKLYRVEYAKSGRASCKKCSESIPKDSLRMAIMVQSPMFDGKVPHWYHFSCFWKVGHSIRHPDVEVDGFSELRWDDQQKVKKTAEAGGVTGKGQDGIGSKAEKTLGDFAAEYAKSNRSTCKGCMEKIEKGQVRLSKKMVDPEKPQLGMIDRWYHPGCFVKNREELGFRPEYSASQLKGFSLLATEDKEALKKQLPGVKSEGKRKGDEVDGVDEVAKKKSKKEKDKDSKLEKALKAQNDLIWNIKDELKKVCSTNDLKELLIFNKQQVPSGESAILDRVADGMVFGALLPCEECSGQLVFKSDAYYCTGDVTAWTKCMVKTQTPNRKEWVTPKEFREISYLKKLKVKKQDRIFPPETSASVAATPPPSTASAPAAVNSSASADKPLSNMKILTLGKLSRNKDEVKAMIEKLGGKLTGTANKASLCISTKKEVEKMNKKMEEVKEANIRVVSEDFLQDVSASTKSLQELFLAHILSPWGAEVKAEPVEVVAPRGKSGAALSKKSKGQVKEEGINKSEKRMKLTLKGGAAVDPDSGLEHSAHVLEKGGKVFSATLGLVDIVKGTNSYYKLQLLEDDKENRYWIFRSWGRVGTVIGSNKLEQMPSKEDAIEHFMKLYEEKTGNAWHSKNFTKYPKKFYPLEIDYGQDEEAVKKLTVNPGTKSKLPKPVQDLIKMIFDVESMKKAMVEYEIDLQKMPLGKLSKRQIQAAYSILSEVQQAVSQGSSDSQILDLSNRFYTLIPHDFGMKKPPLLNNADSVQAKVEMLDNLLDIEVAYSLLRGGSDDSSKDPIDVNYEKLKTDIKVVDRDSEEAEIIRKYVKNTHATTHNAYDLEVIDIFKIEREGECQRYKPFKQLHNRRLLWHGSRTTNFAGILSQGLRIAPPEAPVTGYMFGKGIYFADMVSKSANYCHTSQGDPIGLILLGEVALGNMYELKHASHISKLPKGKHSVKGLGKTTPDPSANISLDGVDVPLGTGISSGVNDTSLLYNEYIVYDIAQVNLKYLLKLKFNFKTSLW
CYP2C19, sequence (P33261 whole entry): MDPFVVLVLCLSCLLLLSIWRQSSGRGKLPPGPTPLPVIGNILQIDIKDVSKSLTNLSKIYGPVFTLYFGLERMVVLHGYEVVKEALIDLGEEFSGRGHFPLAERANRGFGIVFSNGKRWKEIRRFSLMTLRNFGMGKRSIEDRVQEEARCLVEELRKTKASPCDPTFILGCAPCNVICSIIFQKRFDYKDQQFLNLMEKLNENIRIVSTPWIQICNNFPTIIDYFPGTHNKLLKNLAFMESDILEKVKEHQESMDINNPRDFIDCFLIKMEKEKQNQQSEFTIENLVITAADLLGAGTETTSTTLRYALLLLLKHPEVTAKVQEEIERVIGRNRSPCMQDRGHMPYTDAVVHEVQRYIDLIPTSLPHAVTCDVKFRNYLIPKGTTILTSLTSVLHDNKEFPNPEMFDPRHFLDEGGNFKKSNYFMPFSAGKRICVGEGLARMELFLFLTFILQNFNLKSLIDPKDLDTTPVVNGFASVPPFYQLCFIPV
Poly [ADP-ribose] polymerase tankyrase-2, sequence (Q9H2K2 whole entry): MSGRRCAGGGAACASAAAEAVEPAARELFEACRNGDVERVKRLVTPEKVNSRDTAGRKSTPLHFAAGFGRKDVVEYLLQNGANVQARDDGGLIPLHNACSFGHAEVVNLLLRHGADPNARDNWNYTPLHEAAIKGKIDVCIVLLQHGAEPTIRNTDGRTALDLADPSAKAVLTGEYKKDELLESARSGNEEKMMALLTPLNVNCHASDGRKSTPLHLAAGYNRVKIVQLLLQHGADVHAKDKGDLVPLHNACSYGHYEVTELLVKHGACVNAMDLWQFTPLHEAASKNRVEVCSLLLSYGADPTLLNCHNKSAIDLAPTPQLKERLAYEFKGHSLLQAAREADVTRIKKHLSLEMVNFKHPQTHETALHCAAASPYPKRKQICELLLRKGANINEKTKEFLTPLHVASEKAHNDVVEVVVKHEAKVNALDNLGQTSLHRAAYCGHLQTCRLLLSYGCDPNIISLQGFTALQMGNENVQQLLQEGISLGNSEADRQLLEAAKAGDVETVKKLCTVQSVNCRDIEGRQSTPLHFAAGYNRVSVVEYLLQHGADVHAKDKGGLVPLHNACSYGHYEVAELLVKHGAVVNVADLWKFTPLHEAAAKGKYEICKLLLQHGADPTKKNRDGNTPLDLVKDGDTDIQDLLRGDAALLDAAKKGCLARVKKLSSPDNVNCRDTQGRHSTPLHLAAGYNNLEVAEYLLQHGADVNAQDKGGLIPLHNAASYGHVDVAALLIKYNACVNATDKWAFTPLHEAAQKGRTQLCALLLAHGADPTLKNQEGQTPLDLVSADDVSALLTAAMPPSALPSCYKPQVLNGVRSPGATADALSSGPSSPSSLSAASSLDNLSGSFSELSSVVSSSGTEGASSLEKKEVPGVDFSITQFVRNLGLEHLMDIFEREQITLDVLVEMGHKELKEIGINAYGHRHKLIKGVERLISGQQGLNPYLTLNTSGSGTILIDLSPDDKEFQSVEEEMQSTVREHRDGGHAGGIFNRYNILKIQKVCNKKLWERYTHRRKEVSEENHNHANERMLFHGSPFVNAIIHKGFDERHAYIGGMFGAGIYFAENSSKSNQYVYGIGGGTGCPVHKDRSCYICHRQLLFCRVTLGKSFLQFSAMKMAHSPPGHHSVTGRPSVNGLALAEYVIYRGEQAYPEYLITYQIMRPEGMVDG
CYP3A4, sequence (P08684 whole entry): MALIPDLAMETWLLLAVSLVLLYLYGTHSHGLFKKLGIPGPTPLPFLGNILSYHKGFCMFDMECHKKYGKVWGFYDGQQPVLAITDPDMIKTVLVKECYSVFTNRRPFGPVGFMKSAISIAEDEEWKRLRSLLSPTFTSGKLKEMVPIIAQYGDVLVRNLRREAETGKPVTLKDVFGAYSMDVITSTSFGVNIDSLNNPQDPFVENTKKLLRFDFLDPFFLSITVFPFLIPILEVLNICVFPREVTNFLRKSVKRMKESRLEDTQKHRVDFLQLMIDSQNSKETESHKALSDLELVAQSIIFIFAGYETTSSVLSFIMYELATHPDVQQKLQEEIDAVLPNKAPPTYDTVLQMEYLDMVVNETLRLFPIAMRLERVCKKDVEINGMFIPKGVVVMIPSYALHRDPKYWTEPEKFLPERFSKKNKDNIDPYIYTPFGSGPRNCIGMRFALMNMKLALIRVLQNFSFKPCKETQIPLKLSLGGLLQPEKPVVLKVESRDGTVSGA

N#Cc1ccc(N2CCN([C@H]3C=C(c4cc5ncccc5c(=O)[nH]4)CC3)CC2)cc1
IC50 (MDA-MB-436 [1]): 0.8 pM
inhibition in vivo at 0.45 mg/kg (SK-ES1 [2]): 20%
Activity (MDA-MB-436 [3]): Active
IC50 [4]: 8 µM
inhibition in vivo at 0.15 mg/kg (SK-ES1 [5]): 89%
inhibition at 10 µM (CYP2C19): ≤ 23%
inhibition at 10 µM (CYP2C9): ≤ 23%
NOAEL [6]: 30 mg/kg/day
NOAEL [7]: 30 mg/kg/day
Activity (HEK293): 72%
inhibition in vivo at 0.3 mg/kg (CAPAN-1 [8]): 49.6%
inhibition at 10 µM (CYP2B6): ≤ 23%
remaining at 4 h [9]: 80%
inhibition [10]: 82%
Activity [11]: Non-Toxic
Activity [12]: 70%
inhibition in vivo at 0.15 mg/kg (CAPAN-1 [13]): 88%
remaining at 4 h [14]: 80%
inhibition in vivo at 0.015 mg/kg (MDA-MB-436 [15]): 50%
Activity [16]: Non-Toxic
inhibition in vivo at 0.15 mg/kg (MDA-MB-436 [17]): 79%
fraction unbound [18]: 0.056
NOAEL [19]: 15 mg/kg/day
remaining at 4 h [20]: 80%
IC50 [21]: 74 nM
IC50 (MDA-MB-436 [22]): 0.035 nM
inhibition at 10 µM (CYP3A4): ≤ 23%
Activity (MDA-MB-436 [23]): Dose-dependent effect
Cmax [24]: 31 µM
inhibition in vivo at 0.1 mg/kg (CAPAN-1 [25]): 46.1%
AUC(0-t) at 24 h [26]: 403 µM·h
Activity [27]: 70%
Activity [28]: Non-Toxic
IC50 [29]: 8.1 nM
inhibition in vivo at 0.15 mg/kg (MDA-MB-436 [30]): > 90%
fraction unbound [31]: 0.017
